Measurements from PubChem BioAssay (NCI).
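How tested: cells in 96-well plates exposed to compound for 48 hours at five concentrations. TGI denotes the concentration required for complete inhibition of growth.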

How the values were obtained:
Test in all cases: NCI anticancer screen, dose series, 48 h
U251 CNS = system: U251 CNS
SK-OV-3 ovarian = system: SK-OV-3 ovarian
LOX IMVI melanoma = system: LOX IMVI melanoma
KM12 colon = system: KM12 colon
UACC-62 melanoma = system: UACC-62 melanoma
SNB-75 CNS = system: SNB-75 CNS
OVCAR-4 ovarian = system: OVCAR-4 ovarian
SW-620 colon = system: SW-620 colon
HCC-2998 colon = system: HCC-2998 colon
PC-3 prostate = system: PC-3 prostate

Structure (SMILES): Cc1ccc(Nc2nc(=O)[nH]c(=O)[nH]2)cc1N
- TGI (U251 CNS): > 100 µM
- TGI (SK-OV-3 ovarian): > 100 µM
- TGI (LOX IMVI melanoma): > 100 µM
- TGI (KM12 colon): > 100 µM
- TGI (UACC-62 melanoma): > 100 µM
- TGI (SNB-75 CNS): > 100 µM
- TGI (OVCAR-4 ovarian): > 100 µM
- TGI (SW-620 colon): > 100 µM
- TGI (HCC-2998 colon): > 100 µM
- TGI (PC-3 prostate): > 100 µM

Structure (SMILES): COc1ccc(N2C(=O)C3c4[nH]c5ccc(C)cc5c4C4CCC(C(C)C)CC4C3C2=O)cc1 (stereo not given)
- TGI (U251 CNS): > 100 µM
- TGI (SK-OV-3 ovarian): > 100 µM
- TGI (LOX IMVI melanoma): > 100 µM
- TGI (KM12 colon): > 100 µM
- TGI (UACC-62 melanoma): > 100 µM
- TGI (SNB-75 CNS): 74.2 µM
- TGI (OVCAR-4 ovarian): > 100 µM
- TGI (SW-620 colon): > 100 µM
- TGI (HCC-2998 colon): > 100 µM
- TGI (PC-3 prostate): > 100 µM

Structure (SMILES): CC1(C)OC[C@@H](/C=C\CCO[Si](c2ccccc2)(c2ccccc2)C(C)(C)C)N1C(=O)c1ccccc1
- TGI (U251 CNS): 45.5 µM
- TGI (SK-OV-3 ovarian): > 100 µM
- TGI (LOX IMVI melanoma): 28.6 µM
- TGI (KM12 colon): 34.6 µM
- TGI (UACC-62 melanoma): 33.1 µM
- TGI (SNB-75 CNS): > 100 µM
- TGI (OVCAR-4 ovarian): > 100 µM
- TGI (SW-620 colon): > 100 µM
- TGI (HCC-2998 colon): 21.4 µM
- TGI (PC-3 prostate): > 100 µM

Structure (SMILES): O=C(Cc1nc2ccc(C(=O)c3ccccc3)cc2[nH]c1=O)C(=O)Nc1ccccc1[N+](=O)[O-]
- TGI (U251 CNS): > 100 µM
- TGI (SK-OV-3 ovarian): > 100 µM
- TGI (LOX IMVI melanoma): > 100 µM
- TGI (KM12 colon): > 100 µM
- TGI (UACC-62 melanoma): > 100 µM
- TGI (SNB-75 CNS): > 100 µM
- TGI (OVCAR-4 ovarian): > 100 µM
- TGI (SW-620 colon): > 100 µM
- TGI (HCC-2998 colon): > 100 µM
- TGI (PC-3 prostate): > 100 µM

Structure (SMILES): O=C(Nc1cccc2nsnc12)c1cc2c(cc1Cl)Sc1nccn1S2(=O)=O
- TGI (U251 CNS): 17.6 µM
- TGI (SK-OV-3 ovarian): > 100 µM
- TGI (LOX IMVI melanoma): > 63.8 µM
- TGI (KM12 colon): 4.65 µM
- TGI (UACC-62 melanoma): 17.6 µM
- TGI (SNB-75 CNS): 35.9 µM
- TGI (OVCAR-4 ovarian): 15.6 µM
- TGI (SW-620 colon): > 60.7 µM
- TGI (HCC-2998 colon): 11.7 µM
- TGI (PC-3 prostate): 3.64 µM

Structure (SMILES): COc1ccc(/C=N/Nc2[nH]c(=S)nc3[nH]ncc23)cc1
- TGI (U251 CNS): 40.7 µM
- TGI (SK-OV-3 ovarian): > 100 µM
- TGI (LOX IMVI melanoma): > 100 µM
- TGI (KM12 colon): > 100 µM
- TGI (UACC-62 melanoma): > 100 µM
- TGI (SNB-75 CNS): > 100 µM
- TGI (OVCAR-4 ovarian): > 100 µM
- TGI (SW-620 colon): > 100 µM
- TGI (HCC-2998 colon): > 100 µM
- TGI (PC-3 prostate): > 100 µM

Structure (SMILES): O=C1c2ccccc2S(=O)(=O)c2ccccc21
- TGI (U251 CNS): > 100 µM
- TGI (SK-OV-3 ovarian): > 100 µM
- TGI (LOX IMVI melanoma): > 100 µM
- TGI (KM12 colon): > 100 µM
- TGI (UACC-62 melanoma): > 100 µM
- TGI (SNB-75 CNS): > 100 µM
- TGI (OVCAR-4 ovarian): > 100 µM
- TGI (SW-620 colon): > 100 µM
- TGI (HCC-2998 colon): > 100 µM
- TGI (PC-3 prostate): > 100 µM
